{"source": "paper PMC3629139", "about": "“A Powerful Molecular Engineering Tool Provided Efficient Chlamydomonas Mutants as Bio-Sensing Elements for Herbicides Detection” (PLoS ONE, 2013)", "assay_in_all_cases": "chlorophyll a fluorescence induction (OJIP), inhibition of 1-VJ (QA to QB electron transfer) in living algal cells", "type_in_all_cases": "cell-based", "conditions_in_all_cases": "read-out: Atrazine / I50×10^-7 M / (±SE)", "key": {"[1]": {"biological_target": "T1, photosystem II (PSII) D1 protein (Chlamydomonas reinhardtii, UniProt P07753)", "T1 construct": "gene psbA; full-length D1 from intronless psbA in the chloroplast, assembled in native PSII (with D2 and other subunits) in living algal cells; D1 mutants by ep-PCR of Ala153-Ala294 region and biolistic transformation of Del1", "excerpt": "(§1) chlorophyll a fluorescence induction (OJIP), inhibition of 1-VJ (QA to QB electron transfer) in living algal cells on photosystem II (PSII) D1 protein"}, "[2]": {"biological_target": "T2, photosystem II (PSII) D1 protein (Chlamydomonas reinhardtii, UniProt P07753, F211S/P162S)", "T2 construct": "gene psbA; full-length D1 from intronless psbA in the chloroplast, assembled in native PSII (with D2 and other subunits) in living algal cells; D1 mutants by ep-PCR of Ala153-Ala294 region and biolistic transformation of Del1", "excerpt": "as §1"}, "[3]": {"biological_target": "T3, photosystem II (PSII) D1 protein (Chlamydomonas reinhardtii, UniProt P07753, G207S)", "T3 construct": "gene psbA; full-length D1 from intronless psbA in the chloroplast, assembled in native PSII (with D2 and other subunits) in living algal cells; D1 mutants by ep-PCR of Ala153-Ala294 region and biolistic transformation of Del1", "excerpt": "as §1"}, "[4]": {"biological_target": "T4, photosystem II (PSII) D1 protein (Chlamydomonas reinhardtii, UniProt P07753, I281T)", "T4 construct": "gene psbA; full-length D1 from intronless psbA in the chloroplast, assembled in native PSII (with D2 and other subunits) in living algal cells; D1 mutants by ep-PCR of Ala153-Ala294 region and biolistic transformation of Del1", "excerpt": "as §1"}, "[5]": {"biological_target": "T5, photosystem II (PSII) D1 protein (Chlamydomonas reinhardtii, UniProt P07753, L200I)", "T5 construct": "gene psbA; full-length D1 from intronless psbA in the chloroplast, assembled in native PSII (with D2 and other subunits) in living algal cells; D1 mutants by ep-PCR of Ala153-Ala294 region and biolistic transformation of Del1", "excerpt": "as §1"}, "[6]": {"biological_target": "T6, photosystem II (PSII) D1 protein (Chlamydomonas reinhardtii, UniProt P07753, M172L)", "T6 construct": "gene psbA; full-length D1 from intronless psbA in the chloroplast, assembled in native PSII (with D2 and other subunits) in living algal cells; D1 mutants by ep-PCR of Ala153-Ala294 region and biolistic transformation of Del1", "excerpt": "as §1"}}, "note": "pIC50: −log10 of the molar value."}
{"compound": "CCNc1nc(Cl)nc(NC(C)C)n1", "note": "[Atrazine, 2-chloro-4-(ethylamine)-6-(isopropylamine)-s-triazine]", "values": [{"measurement": "pIC50", "setting": "[1]", "result": 6.62}, {"measurement": "pIC50", "setting": "[2]", "result": 5.71}, {"measurement": "pIC50", "setting": "[3]", "result": 6.68}, {"measurement": "pIC50", "setting": "[4]", "result": 6.70}, {"measurement": "pIC50", "setting": "[5]", "result": 6.74}, {"measurement": "pIC50", "setting": "[6]", "result": 6.66}]}
